The values that follow come from patent publication US8829007B2 (priority 2009, dated 2014).

Bounds are passed on as bounds.

The subject of the first assay is influenza A virus (A/PR/8/34). The assay is described as follows: microbe, parasite or virus in culture. Conditions: Influenza A virus, PR/8, MDCK, MDCK cells infected with A/PR/8/34, cell protection (CPE); read-out: IC50 (mean all). Type of assay: cell-based.
What is called IC50 is the midpoint of a concentration-inhibition curve. In the case of `CCC(=O)N1CCCC[C@H]1CNc1nc(-c2c[nH]c3ncccc23)ncc1F` [Compound 257, (S)-1-(2-((5-fluoro-2-(1H-pyrrolo[2,3-b]pyridin-3-yl)pyrimidin-4-ylamino)methyl)piperidin-1-yl)propan-1-one], the IC50 was 5 to 20 µM.

On to `CCCC(=O)N1CCCC[C@H]1CNc1nc(-c2c[nH]c3ncccc23)ncc1F` [Compound 258, (S)-1-(2-((5-fluoro-2-(1H-pyrrolo[2,3-b]pyridin-3-yl)pyrimidin-4-ylamino)methyl)piperidin-1-yl)butan-1-one], for which the half-inhibitory concentration (IC50) was in the range of 5 to 20 µM.

For `O=C(c1ccccc1)N1CCCC[C@H]1CNc1nc(-c2c[nH]c3ncccc23)ncc1F` [Compound 259, (S)-(2-((5-fluoro-2-(1H-pyrrolo[2,3-b]pyridin-3-yl)pyrimidin-4-ylamino)methyl)piperidin-1-yl)(phenyl)methanone], the half-inhibitory concentration (IC50) was 5 to 20 µM.

`COc1ccccc1C(=O)N1CCCC[C@H]1CNc1nc(-c2c[nH]c3ncccc23)ncc1F` [Compound 260, (S)-(2-((5-fluoro-2-(1H-pyrrolo[2,3-b]pyridin-3-yl)pyrimidin-4-ylamino)methyl)piperidin-1-yl)(2-methoxyphenyl)methanone]: the IC50 was greater than 20 µM.

For the molecule `CC(=O)N1CCC[C@H](CNc2nc(-c3c[nH]c4ncccc34)ncc2F)C1` [Compound 268, (R)-1-(3-((5-fluoro-2-(1H-pyrrolo[2,3-b]pyridin-3-yl)pyrimidin-4-ylamino)methyl)piperidin-1-yl)ethanone], the IC50 is 5 to 20 µM.

On to `CCCC(=O)N1CCC[C@H](CNc2nc(-c3c[nH]c4ncccc34)ncc2F)C1` [Compound 270, (R)-1-(3-((5-fluoro-2-(1H-pyrrolo[2,3-b]pyridin-3-yl)pyrimidin-4-ylamino)methyl)piperidin-1-yl)butan-1-one], for which the half-inhibitory concentration (IC50) lay within 5 to 20 µM.

Regarding `O=C(c1ccccc1)N1CCC[C@H](CNc2nc(-c3c[nH]c4ncccc34)ncc2F)C1` [Compound 271, (R)-(3-((5-fluoro-2-(1H-pyrrolo[2,3-b]pyridin-3-yl)pyrimidin-4-ylamino)methyl)piperidin-1-yl)(phenyl)methanone], the IC50 lay within 5 to 20 µM.

For the molecule `COc1ccccc1C(=O)N1CCC[C@H](CNc2nc(-c3c[nH]c4ncccc34)ncc2F)C1` [Compound 272, (R)-(3-((5-fluoro-2-(1H-pyrrolo[2,3-b]pyridin-3-yl)pyrimidin-4-ylamino)methyl)piperidin-1-yl)(2-methoxyphenyl)methanone], the IC50 is greater than 20 µM.

Consider `CNC(=O)N1CCC[C@H](CNc2nc(-c3c[nH]c4ncccc34)ncc2F)C1` [Compound 274], for which the IC50 was in the range of 5 to 20 µM.

On to `CCNC(=O)N1CCC[C@H](CNc2nc(-c3c[nH]c4ncccc34)ncc2F)C1` [Compound 275, (R)—N-ethyl-3-((5-fluoro-2-(1H-pyrrolo[2,3-b]pyridin-3-yl)pyrimidin-4-ylamino)methyl)piperidine-1-carboxamide], for which the IC50 was in the range of 5 to 20 µM.

With `CCCNC(=O)N1CCC[C@H](CNc2nc(-c3c[nH]c4ncccc34)ncc2F)C1` [Compound 276], the IC50 is greater than 20 µM.

Take `O=C(CCCCl)N1CCCC[C@@H]1CNc1nc(-c2c[nH]c3ncc(Cl)cc23)ncc1F` [Compound 278, (R)-4-chloro-1-(2-((2-(5-chloro-1H-pyrrolo[2,3-b]pyridin-3-yl)-5-fluoropyrimidin-4-ylamino)methyl)piperidin-1-yl)butan-1-one]: the IC50 was greater than 20 µM.

For `O=C(CC1CCCCC1)N1CCCC[C@@H]1CNc1nc(-c2c[nH]c3ncc(Cl)cc23)ncc1F` [Compound 294, (R)-1-(2-((2-(5-chloro-1H-pyrrolo[2,3-b]pyridin-3-yl)-5-fluoropyrimidin-4-ylamino)methyl)piperidin-1-yl)-2-cyclohexylethanone], the half-inhibitory concentration (IC50) was greater than 20 µM.

Still in this assay, the particulars now being: Influenza A virus, PR/8, MDCK, mean all; A/PR/8/34 infected MDCK cells, CPE assay; read-out: IC50.
With `CCCS(=O)(=O)N1CCCC[C@@H]1CNc1nc(-c2c[nH]c3ncc(Cl)cc23)ncc1F` [Compound 328, (R)-2-(5-chloro-1H-pyrrolo[2,3-b]pyridin-3-yl)-5-fluoro-N-((1-(propylsulfonyl)piperidin-2-yl)methyl)pyrimidin-4-amine], the 50% inhibitory concentration (IC50) was greater than 20 µM.

`CCCCS(=O)(=O)N1CCCC[C@@H]1CNc1nc(-c2c[nH]c3ncc(Cl)cc23)ncc1F` [Compound 329, (R)—N-((1-(butylsulfonyl)piperidin-2-yl)methyl)-2-(5-chloro-1H-pyrrolo[2,3-b]pyridin-3-yl)-5-fluoropyrimidin-4-amine]: the half-maximal inhibitory concentration (IC50) is greater than 20 µM.

As for `CC(=O)N[C@@H]1CCCC[C@H]1Nc1nc(-c2c[nH]c3ncccc23)ncc1F` [Compound 348, N-[(1R,2R)-2-[[5-fluoro-2-(1H-pyrrolo[2,3-b]pyridin-3-yl)pyrimidin-4-yl]amino]cyclohexyl]acetamide], the half-maximal inhibitory concentration (IC50) was greater than 20 µM.

In the case of `O=C(N[C@@H]1CCCC[C@H]1Nc1nc(-c2c[nH]c3ncc(Cl)cc23)ncc1F)C1CCCC1` [Compound 351, N-[(1R,2R)-2-[[2-(5-chloro-1H-pyrrolo[2,3-b]pyridin-3-yl)-5-fluoro-pyrimidin-4-yl]amino]cyclohexyl]cyclopentanecarboxamide], the IC50 was greater than 20 µM.

In the case of `O=C(N[C@@H]1CCCC[C@H]1Nc1nc(-c2c[nH]c3ncc(Cl)cc23)ncc1F)c1ccccc1` [Compound 352, N-[(1R,2R)-2-[[2-(5-chloro-1H-pyrrolo[2,3-b]pyridin-3-yl)-5-fluoro-pyrimidin-4-yl]amino]cyclohexyl]benzamide], the IC50 is greater than 20 µM.

For the molecule `CS(=O)(=O)N[C@@H]1CCCC[C@H]1Nc1nc(-c2c[nH]c3ncc(Cl)cc23)ncc1F` [Compound 353, N-[(1R,2R)-2-[[2-(5-chloro-1H-pyrrolo[2,3-b]pyridin-3-yl)-5-fluoro-pyrimidin-4-yl]amino]cyclohexyl]methanesulfonamide], the IC50 was greater than 20 µM.

Turning to `CCCS(=O)(=O)N[C@@H]1CCCC[C@H]1Nc1nc(-c2c[nH]c3ncc(Cl)cc23)ncc1F` [Compound 354, N-[(1R,2R)-2-[[2-(5-chloro-1H-pyrrolo[2,3-b]pyridin-3-yl)-5-fluoro-pyrimidin-4-yl]amino]cyclohexyl]propane-1-sulfonamide], the IC50 is greater than 20 µM.

Regarding `CCCNC(=O)N[C@@H]1CCCC[C@H]1Nc1nc(-c2c[nH]c3ncc(Cl)cc23)ncc1F` [Compound 355, 1-[(1R,2R)-2-[[2-(5-chloro-1H-pyrrolo[2,3-b]pyridin-3-yl)-5-fluoro-pyrimidin-4-yl]amino]cyclohexyl]-3-propyl-urea], the IC50 is greater than 20 µM.

Take `CCC(=O)N[C@@H]1CCCC[C@H]1Nc1nc(-c2c[nH]c3ncccc23)ncc1F` [Compound 356, N-[(1R,2R)-2-[[5-fluoro-2-(1H-pyrrolo[2,3-b]pyridin-3-yl)pyrimidin-4-yl]amino]cyclohexyl]propanamide]: the IC50 is greater than 20 µM.

As for `CCCC(=O)N[C@@H]1CCCC[C@H]1Nc1nc(-c2c[nH]c3ncccc23)ncc1F` [Compound 358, N-[(1R,2R)-2-[[5-fluoro-2-(1H-pyrrolo[2,3-b]pyridin-3-yl)pyrimidin-4-yl]amino]cyclohexyl]butanamide], the concentration for half-maximal inhibition (IC50) is greater than 20 µM.

Consider `O=C(N[C@@H]1CCCC[C@H]1Nc1nc(-c2c[nH]c3ncccc23)ncc1F)C1CCCC1` [Compound 359, N-[(1R,2R)-2-[[5-fluoro-2-(1H-pyrrolo[2,3-b]pyridin-3-yl)pyrimidin-4-yl]amino]cyclohexyl]cyclopentanecarboxamide], for which the IC50 was greater than 20 µM.

Take `O=C(N[C@@H]1CCCC[C@H]1Nc1nc(-c2c[nH]c3ncccc23)ncc1F)c1ccccc1` [Compound 360, N-[(1R,2R)-2-[[5-fluoro-2-(1H-pyrrolo[2,3-b]pyridin-3-yl)pyrimidin-4-yl]amino]cyclohexyl]benzamide]: the half-maximal inhibitory concentration (IC50) was greater than 20 µM.

As for `CS(=O)(=O)N[C@@H]1CCCC[C@H]1Nc1nc(-c2c[nH]c3ncccc23)ncc1F` [Compound 361, N-[(1R,2R)-2-[[5-fluoro-2-(1H-pyrrolo[2,3-b]pyridin-3-yl)pyrimidin-4-yl]amino]cyclohexyl]methanesulfonamide], the IC50 was greater than 20 µM.

Consider `CCCS(=O)(=O)N[C@@H]1CCCC[C@H]1Nc1nc(-c2c[nH]c3ncccc23)ncc1F` [Compound 362, N-[(1R,2R)-2-[[5-fluoro-2-(1H-pyrrolo[2,3-b]pyridin-3-yl)pyrimidin-4-yl]amino]cyclohexyl]propane-1-sulfonamide], for which the concentration for half-maximal inhibition (IC50) is greater than 20 µM.

Consider `O=C(NC1CCCCC1Nc1nc(-c2c[nH]c3ncc(Cl)cc23)ncc1F)C1CCCC1` (stereo not drawn) [Compound 364, N-[(trans-2-[[2-(5-chloro-1H-pyrrolo[2,3-b]pyridin-3-yl)-5-fluoro-pyrimidin-4-yl]amino]cyclohexyl]cyclopentanecarboxamide], for which the IC50 was greater than 20 µM.

On to `CCCC(=O)N[C@@H]1CCCC[C@H]1Nc1nc(-c2c[nH]c3ncc(Cl)cc23)ncc1F` [Compound 369, N-[(1R,2R)-2-[[2-(5-chloro-1H-pyrrolo[2,3-b]pyridin-3-yl)-5-fluoro-pyrimidin-4-yl]amino]cyclohexyl]butanamide], for which the IC50 is greater than 20 µM.

`CCCNC(=O)N[C@@H]1CCCC[C@H]1Nc1nc(-c2c[nH]c3ncccc23)ncc1F` [Compound 370, 1-[(1R,2R)-2-[[5-fluoro-2-(1H-pyrrolo[2,3-b]pyridin-3-yl)pyrimidin-4-yl]amino]cyclohexyl]-3-propyl-urea]: the IC50 is greater than 20 µM.

Regarding `CC(C)NC(=O)N1CCCC[C@@H]1CNc1nc(-c2c[nH]c3ncccc23)ncc1F` [Compound 371], the IC50 is greater than 20 µM.

Take `CNC(=O)N1CCCC[C@@H]1CNc1nc(-c2c[nH]c3ncccc23)ncc1F` [Compound 374, (R)-2-((5-fluoro-2-(1H-pyrrolo[2,3-b]pyridin-3-yl)pyrimidin-4-ylamino)methyl)-N-methylpiperidine-1-carboxamide]: the IC50 was greater than 20 µM.

The same assay, now with this note: Influenza A virus, PR/8, MDCK; read-out: IC50 (mean all).
On to `CCC(=O)N1CCCC(CNc2nc(-c3c[nH]c4ncccc34)ncc2F)C1` (centres unmarked) [Compound 269], for which the IC50 was 5 to 20 µM.

Staying with this assay, now noted: mean all; A/PR/8/34 infected MDCK cells, CPE assay; read-out: IC50.
In the case of `CN1CCC(Nc2nc(-c3c[nH]c4ncccc34)ncc2F)C1=O` (centres unmarked) [Compound 376], the IC50 is 5 to 20 µM.

As for `O=C1NCCC1Nc1nc(-c2c[nH]c3ncccc23)ncc1F` (centres unmarked) [Compound 377], the half-maximal inhibitory concentration (IC50) is greater than 20 µM.
